Tests used:
Assay in all cases: promoter assay (GFP reporter), Example 2
Type in all cases: cell-based, Saccharomyces cerevisiae
[1] = test system: gene-disrupted strain DEL025 (YLR311C) transformed with a plasmid p-YBR072W; details: strain printed DEL, p-YBR072W, GFP fluorescence 4 hours after loading, parent strain BY4743
Protocol: (§1) In a gene-disrupted strain, a growing rate becomes small so much, or medium components in which the strain can be grown are different in some cases, depending on a disrupted gene. Then, in the present experiment studying a host cell of a promoter assay method, in view of easy comparison with a control experiment, among gene-disrupted strains obtained as the result of Example 1, a few strains which have sensitivity to many chemicals and are grown by the same procedure as that of a parent strain were selected. Selected gene-disrupted strains are 8 strains of DEL000, DEL002, DEL011, DEL014, DEL016, DEL019, DEL022 and DEL025 in Table 7. Further, as a control, a parent strain, BY4743 was used.
(§2) A competent cell of each of a parent strain of a gene-disrupted strain and selected gene-disrupted strains was prepared. This competent cell was transformed using two kinds of prepared plasmids for promoter assay, p-YBR072W (in which GFP was connected understream of a promoter of YBR072W) and p-YPL171C (in which GFP was connected downstream of a promoter of YPL171C).
(§3) The resulting transformant was grown to the steady state by shaking-culturing on a SD medium (histidine, leucine) at 25° C. The transformant in the steady state was diluted 500-fold with the same medium, shaking-cultured at 25° C. for 15 hours and, after it was confirmed that an absorbance at 600 nm was 0.2 to 0.5 as a logarithmic growth phase, chemicals having different concentrations were loaded. After loading of chemicals, fluorescence of cells which had been cultured for 4 hours was measured using a flow cytometer (FITC filter, EPICS XL-MCL, Bechmancoulter), and this was adopted as an expression amount of GFP (green fluorescence protein) which is a marker gene. A fluorescence intensity of 10000 cells was measured with a flow cytometer by one measurement and an average of fluorescence intensities of all cells was obtained, and was adopted as a measured value. Similarly, a fluorescence intensity of a cell to which a chemical had not been loaded was obtained, and results are shown as a fluorescence intensity ratio.

[2] = test system: gene-disrupted strain DEL002 (YDR027C) transformed with a plasmid p-YBR072W; details: GFP fluorescence 4 hours after loading, parent strain BY4743
Protocol: as §1, §2, §3

[3] = test system: gene-disrupted strain DEL019 (YIL036W) transformed with a plasmid p-YBR072W; details: strain printed DEL019025, p-YBR072W, GFP fluorescence 4 hours after loading, parent strain BY4743
Protocol: as §1, §2, §3

[4] = test system: gene-disrupted strain DEL016 (YCR028C) transformed with a plasmid p-YBR072W; details: GFP fluorescence 4 hours after loading, parent strain BY4743
Protocol: as §1, §2, §3

[5] = test system: gene-disrupted strain DEL011 (YGL240W) transformed with a plasmid p-YBR072W; details: GFP fluorescence 4 hours after loading, parent strain BY4743
Protocol: as §1, §2, §3

[6] = test system: gene-disrupted strain DEL016 (YCR028C) transformed with a plasmid p-YPL171C; details: GFP fluorescence 4 hours after loading, parent strain BY4743
Protocol: as §1, §2, §3

[7] = test system: gene-disrupted strain DEL011 (YGL240W) transformed with a plasmid p-YPL171C; details: GFP fluorescence 4 hours after loading, parent strain BY4743
Protocol: as §1, §2, §3

SMILES: [Cl][Cd][Cl] [cadmium chloride]
- concentration at which the strain responded, as fraction of a concentration of a parent strain [1]: 1/3
- concentration at which the strain responded, as fraction of a concentration of a parent strain [2]: 1/3
- concentration at which the strain responded, as fraction of a concentration of a parent strain [3]: 1/3
- concentration at which the strain responded, as fraction of a concentration of a parent strain [4]: 1/3
- concentration at which the strain responded, as fraction of a concentration of a parent strain [5]: 1/3

SMILES: [Cl][Hg][Cl] [mercuric chloride]
- concentration at which the strain responded, as fraction of a concentration of a parent strain [6]: 1/3
- concentration at which the strain responded, as fraction of a concentration of a parent strain [7]: 1/10

Reference: patent US8173387B2, “Method of examining chemical using gene-disrupted strain” (priority 2003, dated 2012)
